Measured values reported in ChEMBL document CHEMBL6074623, “Carbamoylation at C-8 position of natural 3-arylcoumarin scaffold for the discovery of novel PARP-1 inhibitors with potent anticancer activity” (Eur J Med Chem, 2024).
Activity calls are given as the source filed them. The calls are words filed in the database; no cut-off is given here.

Key:
[1] = test system: SUM149PT; experiment: Induction of apoptosis in human SUM149PT cells assessed as upregulation of BAX expression incubated for 48 hrs by Western blotting analysis; format: functional, cell-based
[2] = test system: SUM149PT; experiment: Induction of cell cycle arrest in human SUM149PT cells assessed as accumulation of cells at G0/G1 phase at 0.5 uM incubated for 48 hrs by propidium iodide/RNase A staining based flow cytometry (reference value: 69.2 %); format: functional
[3] = test system: SUM149PT; experiment: Induction of cell cycle arrest in human SUM149PT cells assessed as accumulation of cells at S phase at 0.1 uM incubated for 48 hrs by propidium iodide/RNase A staining based flow cytometry (reference value: 18.7 %); format: functional
[4] = test system: SUM149PT; experiment: Induction of apoptosis in human SUM149PT cells assessed as upregulation of caspase-3 expression incubated for 48 hrs by Western blotting analysis; format: functional, cell-based
[5] = test system: SUM149PT; experiment: Induction of cell cycle arrest in human SUM149PT cells assessed as accumulation of cells at G2/M phase at 0.5 uM incubated for 24 hrs by propidium iodide/RNase A staining based flow cytometry (reference value: 5.54 %); format: functional
[6] = test system: HCC1937; experiment: Antiproliferative activity against human HCC1937 cells assessed as inhibition of cell growth at 20 uM incubated for 48 hrs by MTT assay relative to control; format: functional
[7] = test system: SUM149PT; experiment: Induction of ROS in human SUM149PT cells assessed as increase in fluorescence intensity at 2 uM incubated for 48 hrs by DCFH-DA staining based confocal laser scanning microscopic analysis relative to niraparib; format: functional, cell-based
[8] = test system: SUM149PT; experiment: Induction of apoptosis in human SUM149PT cells assessed as viable cells at 0.5 uM incubated for 48 hrs by Annexin V-FITC/PI staining based flow cytometry (reference value: 96.1 %); format: functional; details: read-out: Activity
[9] = test system: SUM149PT; experiment: Induction of apoptosis in human SUM149PT cells assessed as late apoptotic cells at 2 uM incubated for 48 hrs by Annexin V-FITC/PI staining based flow cytometry (reference value: 1.13 %); format: functional
[10] = test system: SUM149PT; experiment: Induction of apoptosis in human SUM149PT cells assessed as downregulation of BCL-2 expression incubated for 48 hrs by Western blotting analysis; format: functional, cell-based
[11] = test system: SUM149PT; experiment: Induction of cell cycle arrest in human SUM149PT cells assessed as accumulation of cells at G0/G1 phase at 0.1 uM incubated for 24 hrs by propidium iodide/RNase A staining based flow cytometry (reference value: 72.8 %); format: functional
[12] = test system: SUM149PT; experiment: Induction of apoptosis in human SUM149PT cells assessed as early apoptotic cells at 2 uM incubated for 24 hrs by Annexin V-FITC/PI staining based flow cytometry (reference value: 2.59 %); format: functional
[13] = test system: CAPAN-1; experiment: Antiproliferative activity against human CAPAN-1 cells assessed as inhibition of cell growth at 20 uM incubated for 48 hrs by MTT assay relative to control; format: functional
[14] = test system: SUM149PT; experiment: Induction of DNA double strand breaks in human SUM149PT cells assessed as increase in gamma-H2AX level in nucleus incubated for 48 hrs by immunofluorescence analysis; format: functional, cell-based
[15] = test system: SUM149PT; experiment: Induction of cell cycle arrest in human SUM149PT cells assessed as accumulation of cells at G0/G1 phase at 2 uM incubated for 24 hrs by propidium iodide/RNase A staining based flow cytometry (reference value: 72.8 %); format: functional
[16] = test system: SUM149PT; experiment: Induction of apoptosis in human SUM149PT cells assessed as necrotic cells at 0.1 uM incubated for 48 hrs by Annexin V-FITC/PI staining based flow cytometry (reference value: 0.51 %); format: functional
[17] = test system: SUM149PT; experiment: Induction of apoptosis in human SUM149PT cells assessed as late apoptotic cells at 0.5 uM incubated for 24 hrs by Annexin V-FITC/PI staining based flow cytometry (reference value: 2.45 %); format: functional
[18] = test system: SUM149PT; experiment: Induction of apoptosis in human SUM149PT cells assessed as late apoptotic cells at 0.5 uM incubated for 48 hrs by Annexin V-FITC/PI staining based flow cytometry (reference value: 1.13 %); format: functional
[19] = test system: SUM149PT; experiment: Induction of apoptosis in human SUM149PT cells assessed as viable cells at 0.1 uM incubated for 48 hrs by Annexin V-FITC/PI staining based flow cytometry (reference value: 96.1 %); format: functional; details: read-out: Activity
[20] = test system: HCC1937; experiment: Antiproliferative activity against human HCC1937 cells assessed as inhibition of cell growth incubated for 48 hrs by MTT assay; format: functional, cell-based; details: HCC1937, 48 h
[21] = test system: SUM149PT; experiment: Induction of apoptosis in human SUM149PT cells assessed as early apoptotic cells at 0.1 uM incubated for 48 hrs by Annexin V-FITC/PI staining based flow cytometry (reference value: 2.28 %); format: functional
[22] = test system: SUM149PT; experiment: Induction of apoptosis in human SUM149PT cells assessed as necrotic cells at 2 uM incubated for 24 hrs by Annexin V-FITC/PI staining based flow cytometry (reference value: 1.27 %); format: functional
[23] = test system: SUM149PT; experiment: Induction of cell cycle arrest in human SUM149PT cells assessed as accumulation of cells at G2/M phase at 0.1 uM incubated for 48 hrs by propidium iodide/RNase A staining based flow cytometry (reference value: […] %); format: functional
[24] = test system: SUM149PT; experiment: Induction of apoptosis in human SUM149PT cells assessed as late apoptotic cells at 2 uM incubated for 24 hrs by Annexin V-FITC/PI staining based flow cytometry (reference value: 2.45 %); format: functional
[25] = test system: Mitochondrial membrane; experiment: Induction of mitochondrial membrane potential loss in human SUM149PT cells incubated for 48 hrs by JC-1 staining based confocal laser scanning microscopic analysis
[26] = test system: SUM149PT; experiment: Induction of apoptosis in human SUM149PT cells assessed as viable cells at 0.5 uM incubated for 24 hrs by Annexin V-FITC/PI staining based flow cytometry (reference value: 93.7 %); format: functional; details: read-out: Activity
[27] = test system: SUM149PT; experiment: Induction of apoptosis in human SUM149PT cells assessed as viable cells at 0.1 uM incubated for 24 hrs by Annexin V-FITC/PI staining based flow cytometry (reference value: 93.7 %); format: functional; details: read-out: Activity
[28] = test system: SUM149PT; experiment: Induction of cell cycle arrest in human SUM149PT cells assessed as accumulation of cells at S phase at 0.5 uM incubated for 24 hrs by propidium iodide/RNase A staining based flow cytometry (reference value: 16.4 %); format: functional
[29] = test system: SUM149PT; experiment: Induction of cell cycle arrest in human SUM149PT cells assessed as accumulation of cells at G2/M phase at 2 uM incubated for 24 hrs by propidium iodide/RNase A staining based flow cytometry (reference value: 5.54 %); format: functional
[30] = test system: SUM149PT; experiment: Induction of cell cycle arrest in human SUM149PT cells assessed as accumulation of cells at S phase at 2 uM incubated for 48 hrs by propidium iodide/RNase A staining based flow cytometry (reference value: 18.7 %); format: functional
[31] = test system: SUM149PT; experiment: Induction of apoptosis in human SUM149PT cells assessed as necrotic cells at 0.1 uM incubated for 24 hrs by Annexin V-FITC/PI staining based flow cytometry (reference value: 1.27 %); format: functional
[32] = test system: SUM149PT; experiment: Induction of apoptosis in human SUM149PT cells assessed as necrotic cells at 2 uM incubated for 48 hrs by Annexin V-FITC/PI staining based flow cytometry (reference value: 0.51 %); format: functional
[33] = test system: SUM149PT; experiment: Induction of DNA double strand breaks in human SUM149PT cells assessed as increase in gamma-H2AX level incubated for 48 hrs by Western blotting analysis; format: functional, cell-based

IC50 [20]: 1.91 µM | Activity [25]: Dose-dependent-effect
Compound: COc1cccc(-c2cc3cc(F)cc(C(N)=O)c3oc2=O)c1
Activity [1]: Dose-dependent-effect | Activity [2]: 38.3% | Activity [3]: 45.4% | Activity [4]: Dose-dependent-effect | Activity [5]: 22.3% | inhibition at 20 µM [6]: > 60% | Activity [7]: Active | viability at 0.5 µM [8]: 61.3% | Activity [9]: 6.85% | Activity [10]: Dose-dependent-effect | Activity [11]: 59.5% | Activity [12]: 9.8% | inhibition at 20 µM [13]: > 60% | Activity [14]: Dose-dependent-effect | Activity [15]: 39.9% | Activity [16]: 1.22% | Activity [17]: 5.48% | Activity [18]: 13.5% | viability at 0.1 µM [19]: 87.3% | Activity [21]: 5.45% | Activity [22]: 6.61% | Activity [23]: 29.1% | Activity [24]: 6.87% | viability at 0.5 µM [26]: 86.6% | viability at 0.1 µM [27]: 91.5% | Activity [28]: 17.4% | Activity [29]: 36.8% | Activity [30]: 18.5% | Activity [31]: 1.86% | Activity [32]: 2.61% | Activity [33]: Dose-dependent-effect
